Patent US20080004253A1, “Thiazolopyrimidine modulators of TRPV1” (priority 2006, published 2008)

Tests used:
[1] = target: T1, human TRPV1 (Homo sapiens, UniProt Q8NER1); experiment: Functional assay: block of capsaicin-induced Ca2+ influx, human assay (hTRPV1/HEK293, FLIPR); type: cell-based; conditions: hTRPV1/HEK293 cells, 150 nM capsaicin challenge, Fluo-3 fluorescence; mean; > value = solubility limit in assay medium
T1 construct: expressed in transfected cells; host or cells: HEK293 (hTRPV1/HEK293), zeocin selection
T1 sequence (Q8NER1 whole entry): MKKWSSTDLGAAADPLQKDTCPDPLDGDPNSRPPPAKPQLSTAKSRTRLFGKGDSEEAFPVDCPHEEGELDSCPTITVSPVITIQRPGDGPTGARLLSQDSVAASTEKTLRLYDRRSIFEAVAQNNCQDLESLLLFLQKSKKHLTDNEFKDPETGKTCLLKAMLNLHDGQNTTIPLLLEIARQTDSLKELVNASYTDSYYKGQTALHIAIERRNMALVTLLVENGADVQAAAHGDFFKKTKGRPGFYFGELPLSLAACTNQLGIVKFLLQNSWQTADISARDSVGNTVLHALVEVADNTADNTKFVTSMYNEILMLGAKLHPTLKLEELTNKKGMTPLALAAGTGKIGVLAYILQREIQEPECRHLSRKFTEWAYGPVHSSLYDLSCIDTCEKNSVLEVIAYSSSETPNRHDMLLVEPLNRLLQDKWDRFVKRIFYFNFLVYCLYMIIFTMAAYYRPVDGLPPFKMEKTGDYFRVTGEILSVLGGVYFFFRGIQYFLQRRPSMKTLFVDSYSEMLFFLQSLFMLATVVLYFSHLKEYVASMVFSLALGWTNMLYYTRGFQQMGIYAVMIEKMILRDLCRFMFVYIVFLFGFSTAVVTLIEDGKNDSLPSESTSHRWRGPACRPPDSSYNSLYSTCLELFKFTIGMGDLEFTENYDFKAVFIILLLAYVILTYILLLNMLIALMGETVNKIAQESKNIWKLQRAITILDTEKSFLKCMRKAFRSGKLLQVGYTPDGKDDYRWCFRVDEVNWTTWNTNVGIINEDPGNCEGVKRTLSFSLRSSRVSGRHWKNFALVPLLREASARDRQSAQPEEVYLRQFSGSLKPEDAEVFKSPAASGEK
Procedure: (§1) Functional assay: block of capsaicin-induced Ca^2+ influx
(§2) HEK293 cells were transfected with human TRPV1 cloned in pcDNA3.1zeo(+) using the Effectene non-liposomal lipid based transfection kit (Qiagen) (hTRPV1/HEK293). hTRPV1/HEK293 cells were routinely grown as monolayers under selection in zeocin (200 μg/mL; Invitrogen) in Dulbecco's Modified Eagle Medium (DMEM, Gibco BRL) supplemented with 10% fetal bovine serum, and penicillin/streptomycin (50 units/mL) in 5% CO2 at 37° C. Cells were passaged frequently, every 3-5 days, to avoid overgrowth, depletion of essential medium components, or acidic medium exposure. Cells were passaged using a brief wash in 0.05% trypsin with 1 mM EDTA, followed by dissociation in divalent-free phosphate-buffered saline (Hyclone #SH30028.02). […] The assay buffer was composed of 130 mM NaCl, 2 mM KCl, 2 mM MgCl2, 10 mM HEPES, 5 mM glucose, and either 2 mM or 20 μM CaCl2. On the day of the experiment, the culture medium was replaced with 2 mM calcium assay buffer using an automated plate washer (ELx405; Biotek, VT). […] After loading the cells, the dye solution was replaced with 50 μL/well of 20 μM calcium assay buffer using the ELx405 plate washer. Test compounds (50 μL/well) were added to the plate and incubated for 30 min. […] The IC50 values were determined. […] The contents of the wells were mixed 3 times (40 μL mix volume) immediately after the additions were made. Concentration-dependence of block was determined by exposing each well of cells in duplicate rows of a 96-well plate to a serial dilution of test compound. The concentration series usually started at 10 μM with a three-fold serial decrement in concentration. The magnitude of the capsaicin response was determined by measuring the change in fluo3 fluorescence before and 100 seconds after the addition of the agonist. Data were analyzed using a non-linear regression program (Origin; OriginLab, MA).
(§3) IC50 values shown are the average (mean) of the results obtained. […] Compounds were tested in either the free base or trifluoroacetic acid salt form.

[2] = target: T2, rat TRPV1 (Rattus norvegicus, UniProt O35433); experiment: Functional assay: block of capsaicin-induced Ca2+ influx, rat assay (rTRPV1/HEK293, FLIPR); type: cell-based; conditions: rTRPV1/HEK293 cells, capsaicin challenge, Fluo-3 fluorescence; mean; > value = solubility limit in assay medium
T2 construct: expressed in transfected cells; host or cells: HEK293 (rTRPV1/HEK293), geneticin selection
T2 sequence (O35433 whole entry): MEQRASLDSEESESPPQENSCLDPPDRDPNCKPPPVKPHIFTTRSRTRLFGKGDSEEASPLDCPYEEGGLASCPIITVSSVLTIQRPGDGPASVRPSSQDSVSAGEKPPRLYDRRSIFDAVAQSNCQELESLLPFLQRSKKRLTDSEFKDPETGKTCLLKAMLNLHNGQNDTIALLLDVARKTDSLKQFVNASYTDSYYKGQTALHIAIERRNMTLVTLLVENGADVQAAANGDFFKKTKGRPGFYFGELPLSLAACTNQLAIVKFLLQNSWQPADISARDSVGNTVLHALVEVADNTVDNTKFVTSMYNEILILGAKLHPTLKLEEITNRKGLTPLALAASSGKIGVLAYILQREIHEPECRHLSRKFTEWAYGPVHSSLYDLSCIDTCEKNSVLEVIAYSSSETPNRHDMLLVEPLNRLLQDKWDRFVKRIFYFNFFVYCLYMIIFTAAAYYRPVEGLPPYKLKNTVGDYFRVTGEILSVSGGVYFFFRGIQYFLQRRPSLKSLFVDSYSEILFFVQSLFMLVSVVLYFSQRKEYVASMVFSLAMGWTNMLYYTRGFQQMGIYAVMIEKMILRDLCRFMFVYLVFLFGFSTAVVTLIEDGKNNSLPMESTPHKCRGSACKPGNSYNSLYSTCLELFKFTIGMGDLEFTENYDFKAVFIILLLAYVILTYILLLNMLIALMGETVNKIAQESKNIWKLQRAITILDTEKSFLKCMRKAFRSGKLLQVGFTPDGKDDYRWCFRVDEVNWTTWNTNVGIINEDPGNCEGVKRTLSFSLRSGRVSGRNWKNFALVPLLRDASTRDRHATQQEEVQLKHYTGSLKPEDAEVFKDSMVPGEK
Procedure: as §1, §2
This assay was performed similarly to the human assay described above, but using HEK293 cells transfected with rat TRPV1 (rTRPV1/HEK293).
as §3

Structure (SMILES) | IC50 [1] [nM] | IC50 [2] [nM]
Cc1nc(Nc2ccc(C(F)(F)F)cc2)c2nc(Nc3c(-c4ccccc4)noc3C)sc2n1 [Example 27, 5-Methyl-N^2-(5-methyl-3-phenyl-isoxazol-4-yl)-N^7-(4-trifluoromethyl-phenyl)-thiazolo[5,4-d]pyrimidine-2,7-diamine] | 91 | 25
Cc1nc(Nc2ccc(S(=O)(=O)C(F)(F)F)cc2)c2nc(Nc3c(C)cccc3C)sc2n1 [Example 90, N^2-(2,6-Dimethyl-phenyl)-5-methyl-N^7-(4-trifluoromethanesulfonyl-phenyl)-thiazolo[5,4-d]pyrimidine-2,7-diamine] | 7 | 15
COC(=O)c1scc(C)c1Nc1nc2c(Nc3ccc(C(F)(F)F)nc3)ncnc2s1 [Example 49, 4-Methyl-3-[7-(6-trifluoromethyl-pyridin-3-ylamino)-thiazolo[5,4-d]pyrimidin-2-ylamino]-thiophene-2-carboxylic acid methyl ester] | 375 | 431
CC(C)Nc1nc(Nc2ccc(C(F)(F)F)cc2)c2nc(Nc3c(Cl)cccc3Cl)sc2n1 [Example 101, N^2-(2,6-Dichloro-phenyl)-N^5-isopropyl-N^7-(4-trifluoromethyl-phenyl)-thiazolo[5,4-d]pyrimidine-2,5,7-triamine] | 18 | 12
CSc1nc(Nc2ccc(C(F)(F)F)cc2)c2nc(Nc3c(Cl)cccc3Cl)sc2n1 [Example 52, N^2-(2,6-Dichloro-phenyl)-5-methylsulfanyl-N^7-(4-trifluoromethyl-phenyl)-thiazolo[5,4-d]pyrimidine-2,7-diamine] | 226 | 154
Cc1ccc(Nc2ncnc3sc(Nc4c(C)cccc4C)nc23)cc1 [Example 35, N^2-(2,6-Dimethyl-phenyl)-N^7-p-tolyl-thiazolo[5,4-d]pyrimidine-2,7-diamine] | 31 | 10
Cc1nc(Nc2ccc(N(C)S(C)(=O)=O)cc2)c2nc(Nc3c(C)cccc3C)sc2n1 [Example 164, N-{4-[2-(2,6-Dimethyl-phenylamino)-5-methyl-thiazolo[5,4-d]pyrimidin-7-ylamino]-phenyl}-N-methyl-methanesulfonamide] | 6510 | 626
FC(F)(F)c1ccc(Nc2nc(N3CCNCC3)nc3sc(Nc4c(Cl)cccc4Cl)nc23)cc1 [Example 163, N^2-(2,6-Dichloro-phenyl)-5-piperazin-1-yl-N^7-(4-trifluoromethyl-phenyl)-thiazolo[5,4-d]pyrimidine-2,7-diamine] | 5950 | 5140
Cc1cccc(C)c1Nc1nc2c(Nc3ccc(F)cc3)ncnc2s1 [Example 144, N^2-(2,6-Dimethyl-phenyl)-N^7-(4-fluoro-phenyl)-thiazolo[5,4-d]pyrimidine-2,7-diamine] | 431 | 221
FC(F)(F)c1ccc(Nc2ncnc3sc(Nc4ccccc4C(F)(F)F)nc23)cc1 [Example 225, N^2-[2-(Trifluoromethyl)phenyl]-N^7-[4-(trifluoromethyl)phenyl][1,3]thiazolo[5,4-d]pyrimidine-2,7-diamine] | 91 | 32
FC(F)(F)c1ccc(Nc2ncnc3sc(Nc4c(Cl)cccc4C(F)(F)F)nc23)cc1 [Example 18, N^2-(2-Chloro-6-trifluoromethyl-phenyl)-N^7-(4-trifluoromethyl-phenyl)-thiazolo[5,4-d]pyrimidine-2,7-diamine] | 30 | 9
Cc1cccc(C)c1Nc1nc2c(Nc3ccc(S(N)(=O)=O)cc3)ncnc2s1 [Example 44, 4-[2-(2,6-Dimethyl-phenylamino)-thiazolo[5,4-d]pyrimidin-7-ylamino]-benzenesulfonamide] | 14700 | 3620
CSc1ccccc1Nc1nc2c(Nc3ccc(C(F)(F)F)cc3)nc(C)nc2s1 [Example 195, 5-Methyl-N^2-(2-methylsulfanyl-phenyl)-N^7-(4-trifluoromethyl-phenyl)-thiazolo[5,4-d]pyrimidine-2,7-diamine] | 419 | 319
C[C@@H](O)CNc1nc(Nc2ccc(C(F)(F)F)cc2)c2nc(Nc3c(Cl)cccc3Cl)sc2n1 [Example 250, (R)-1-[2-(2,6-Dichloro-phenylamino)-7-(4-trifluoromethyl-phenylamino)-thiazolo[5,4-d]pyrimidin-5-ylamino]-propan-2-ol] | 3.3 | 0.7
Cc1cccc(C)c1Nc1nc2c(Nc3ccc(Cl)nc3)ncnc2s1 [Example 119, N^7-(6-Chloro-pyridin-3-yl)-N^2-(2,6-dimethyl-phenyl)-thiazolo[5,4-d]pyrimidine-2,7-diamine] | 56 | 51
Cc1nc(Nc2ccc(C(F)(F)F)cc2)c2nc(Nc3ccccc3Cl)sc2n1 [Example 202, N^2-(2-Chloro-phenyl)-5-methyl-N^7-(4-trifluoromethyl-phenyl)-thiazolo[5,4-d]pyrimidine-2,7-diamine] | 57 | 58
Cc1cccnc1Nc1nc2c(Nc3ccc(C(F)(F)F)cc3)ncnc2s1 [Example 213, N^2-(3-Methyl-pyridin-2-yl)-N^7-(4-trifluoromethyl-phenyl)-thiazolo[5,4-d]pyrimidine-2,7-diamine] | ≥ 6670 | ≥ 6670
Cc1cccc(C)c1Nc1nc2c(Nc3ccc(C(=O)O)cc3)ncnc2s1 [Example 172, 4-[2-(2,6-Dimethyl-phenylamino)-thiazolo[5,4-d]pyrimidin-7-ylamino]-benzoic acid] | > 20000 | > 20000
Cc1nc(Nc2ccc(C(C)(C)C)cc2)c2nc(Nc3c(C)cccc3C)sc2n1 [Example 244, N^7-(4-tert-Butyl-phenyl)-N^2-(2,6-dimethyl-phenyl)-5-methyl-thiazolo[5,4-d]pyrimidine-2,7-diamine] | 12 | 3
CS(=O)(=O)c1ccc(Nc2ncnc3sc(Nc4c(Cl)cc(C(N)=O)cc4Cl)nc23)cc1 [Example 237, 3,5-Dichloro-4-[7-(4-methanesulfonyl-phenylamino)-thiazolo[5,4-d]pyrimidin-2-ylamino]-benzamide] | 840 | 189
OCC1CN(c2nc(Nc3ccc(C(F)(F)F)c(Cl)c3)c3nc(Nc4c(Cl)cccc4Cl)sc3n2)CCO1 (racemic) [Example 155, (racemic)-{4-[7-(3-Chloro-4-trifluoromethyl-phenylamino)-2-(2,6-dichloro-phenylamino)-thiazolo[5,4-d]pyrimidin-5-yl]-morpholin-2-yl}-methanol] | 1540 | 414
Cc1nc(Nc2ccc(C#N)cc2)c2nc(Nc3c(Cl)cccc3Cl)sc2n1 [Example 96, 4-[2-(2,6-Dichloro-phenylamino)-5-methyl-thiazolo[5,4-d]pyrimidin-7-ylamino]-benzonitrile] | 12 | 9
Cc1nc(Nc2ccc(C(C)C)cc2)c2nc(Nc3c(C)cccc3C)sc2n1 [Example 125, N^2-(2,6-Dimethyl-phenyl)-N^7-(4-isopropyl-phenyl)-5-methyl-thiazolo[5,4-d]pyrimidine-2,7-diamine] | 123 | 19
CS(=O)(=O)c1ccc(Nc2nc(N3CCCCC3)nc3sc(Nc4c(Cl)cccc4Cl)nc23)cc1 [Example 129, N^2-(2,6-Dichloro-phenyl)-N^7-(4-methanesulfonyl-phenyl)-5-piperidin-1-yl-thiazolo[5,4-d]pyrimidine-2,7-diamine] | 149 | 23
